Here are results for six compounds from ChEMBL document CHEMBL1149627, “Erythrocarpines A-E, new cytotoxic limonoids from Chisocheton erythrocarpus” (Bioorg Med Chem, 2007).

In general, IC50 refers to the concentration that inhibits the measured activity by half. The low end stands for greater potency, the high end for weaker potency.

In brackets after ≈: the same amount, converted by molar mass.

This assay has as its system P388. The experiment in a line: Cytotoxicity against mouse P388 cells by MTT assay. The format is functional, cell-based. (Formazan colour is commonly taken as a measure of viable cells.)

In turn, `COC(=O)C[C@H]1C(C)(C)[C@H](OC(=O)c2ccccc2)[C@@H]2C=C3C4=CC(=O)O[C@@H](c5ccoc5)[C@]4(C)CC[C@@H]3[C@@]1(C)C2=O` [ERYTHROCARPINE A] came in with an IC50 of 2 µg/mL (≈ 3.49 µM). In turn, `COC(=O)C[C@H]1C(C)(C)[C@H](OC(=O)c2ccccc2)[C@@H]2C=C3[C@H](CC[C@@]4(C)[C@H](c5ccoc5)OC(=O)C[C@@]34O)[C@@]1(C)C2=O` [ERYTHROCARPINE B] came in with an IC50 of 6 µg/mL (≈ 10.2 µM). For the compound `COC(=O)C[C@H]1C(C)(C)[C@H](OC(=O)/C=C/c2ccccc2)[C@@H]2C=C3[C@H](CC[C@@]4(C)[C@H](c5ccoc5)OC(=O)C[C@@]34O)[C@@]1(C)C2=O` [ERYTHROCARPINE C], inhibition was half-maximal at 9.9 µg/mL (≈ 16.1 µM) (IC50). For the compound `COC(=O)C[C@H]1[C@@]2(C)CO[C@]3(O)[C@@H](C=C4C5=CC(=O)O[C@@H](c6ccoc6)[C@]5(C)CC[C@@H]4[C@]13C)[C@H]2OC(=O)/C=C/c1ccccc1` [ERYTHROCARPINE D], it took 10 µg/mL (≈ 16.3 µM) to reach half-maximal inhibition (IC50). Consider `COC(=O)C[C@H]1[C@@]2(C)CO[C@]3(O)[C@@H](C=C4[C@H](CC[C@@]5(C)[C@H](c6ccoc6)OC(=O)C[C@@]45O)[C@]13C)[C@H]2OC(=O)/C=C/c1ccccc1` [ERYTHROCARPINE E], for which 16 µg/mL (≈ 25.3 µM) corresponded to half-maximal inhibition (IC50). Under `CO[C@@]12[C@H](COC(N)=O)C3=C(C(=O)C(C)=C(N)C3=O)N1C[C@@H]1N[C@@H]12` [MITOMYCIN] stands 0.15 µg/mL (≈ 0.449 µM).
